Results: ChEMBL document CHEMBL1201862, “PubChem BioAssay data set” (2004)
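Compound exposure: 48 hours, 5 concentrations, 96-well plates. GI50 = concentration required for 50% inhibition of growth.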 The source made the active and inactive calls. Rule as the data show it: active = GI50 up to about 1.1 µM and inactive = higher.

Tests used:
Test in all cases: NCI tumour cell line growth inhibition, 48 h
[1] = test system: 786-0
[2] = test system: A549
[3] = test system: ACHN
[4] = test system: CAKI-1
[5] = test system: CCRF-CEM
[6] = test system: COLO 205
[7] = test system: DLD-1
[8] = test system: DMS-114
[9] = test system: DMS-273
[10] = test system: EKVX
[11] = test system: HCC 2998
[12] = test system: HCT-116
[13] = test system: HCT-15
[14] = test system: HL-60
[15] = test system: HOP-18
[16] = test system: HOP-62
[17] = test system: HOP-92
[18] = test system: HT-29
[19] = test system: IGROV-1
[20] = test system: K562
[21] = test system: KM-20L2
[22] = test system: KM12
[23] = test system: LOX IMVI
[24] = test system: LXFL 529
[25] = test system: M14
[26] = test system: MOLT-4
[27] = test system: Malme-3M
[28] = test system: NCI-H226
[29] = test system: NCI-H23
[30] = test system: NCI-H460
[31] = test system: NCI-H522
[32] = test system: OVCAR-3
[33] = test system: OVCAR-4
[34] = test system: OVCAR-5
[35] = test system: OVCAR-8
[36] = test system: RPMI-8226
[37] = test system: RXF 393
[38] = test system: SF-268
[39] = test system: SF-295
[40] = test system: SF-539
[41] = test system: SK-MEL-28
[42] = test system: SK-MEL-2
[43] = test system: SK-MEL-5
[44] = test system: SK-OV-3
[45] = test system: SN12C
[46] = test system: SNB-19
[47] = test system: SNB-75
[48] = test system: SNB-78
[49] = test system: SR
[50] = test system: SW-620
[51] = test system: TK-10
[52] = test system: U-251
[53] = test system: UACC-257
[54] = test system: UACC-62
[55] = test system: UO-31
[56] = test system: XF498

**Q.** How did the GI50 [1] turn out when `COc1ccc(NC(=O)C(=O)C2CNC(=O)NC2=O)c(OC)c1` (stereo unspecified) was run?
**A.** Its GI50 is > 100 µM (inactive).

**Q.** What about the GI50 [2] of the same compound?
**A.** Its GI50 is > 100 µM (inactive).

**Q.** And the GI50 [3]?
**A.** Its GI50 is > 100 µM (inactive).

**Q.** What about the GI50 [4] of the same compound?
**A.** The GI50 was > 100 µM (inactive).

**Q.** What about the GI50 [5] of the same compound?
**A.** The GI50 was > 100 µM (inactive).

**Q.** What about the GI50 [6] of the same compound?
**A.** Its GI50 is > 100 µM (inactive).

**Q.** What about the GI50 [7] of the same compound?
**A.** The GI50 was > 100 µM (inactive).

**Q.** What about the GI50 [8] of the same compound?
**A.** The GI50 was > 100 µM (inactive).

**Q.** And the GI50 [9]?
**A.** The GI50 was > 100 µM (inactive).

**Q.** What about the GI50 [10] of the same compound?
**A.** The GI50 was > 100 µM (inactive).

**Q.** What about the GI50 [11] of the same compound?
**A.** Its GI50 is > 100 µM (inactive).

**Q.** And the GI50 [12]?
**A.** The GI50 was > 100 µM (inactive).

**Q.** What about the GI50 [13] of the same compound?
**A.** The GI50 was > 100 µM.

**Q.** What about the GI50 [14] of the same compound?
**A.** Its GI50 is > 100 µM (inactive).

**Q.** What about the GI50 [15] of the same compound?
**A.** The GI50 was > 100 µM (inactive).

**Q.** What about the GI50 [16] of the same compound?
**A.** Its GI50 is > 100 µM (inactive).

**Q.** And the GI50 [17]?
**A.** The GI50 was > 100 µM (inactive).

**Q.** And the GI50 [18]?
**A.** Its GI50 is > 100 µM (inactive).

**Q.** And the GI50 [19]?
**A.** Its GI50 is > 100 µM (inactive).

**Q.** What about the GI50 [20] of the same compound?
**A.** Its GI50 is > 100 µM (inactive).

**Q.** And the GI50 [21]?
**A.** Its GI50 is > 100 µM (inactive).

**Q.** What about the GI50 [22] of the same compound?
**A.** The GI50 was > 100 µM (inactive).

**Q.** What about the GI50 [23] of the same compound?
**A.** Its GI50 is > 100 µM (inactive).

**Q.** What about the GI50 [24] of the same compound?
**A.** The GI50 was > 100 µM (inactive).

**Q.** And the GI50 [25]?
**A.** The GI50 was > 100 µM (inactive).

**Q.** What about the GI50 [26] of the same compound?
**A.** Its GI50 is > 100 µM (inactive).

**Q.** And the GI50 [27]?
**A.** Its GI50 is > 100 µM (inactive).

**Q.** And the GI50 [28]?
**A.** The GI50 was > 100 µM (inactive).

**Q.** What about the GI50 [29] of the same compound?
**A.** Its GI50 is > 100 µM (inactive).

**Q.** And the GI50 [30]?
**A.** Its GI50 is > 100 µM (inactive).

**Q.** What about the GI50 [31] of the same compound?
**A.** The GI50 was > 100 µM (inactive).

**Q.** And the GI50 [32]?
**A.** The GI50 was > 100 µM (inactive).

**Q.** What about the GI50 [33] of the same compound?
**A.** The GI50 was > 100 µM (inactive).

**Q.** What about the GI50 [34] of the same compound?
**A.** The GI50 was > 100 µM (inactive).

**Q.** What about the GI50 [35] of the same compound?
**A.** Its GI50 is > 100 µM (inactive).

**Q.** And the GI50 [36]?
**A.** Its GI50 is > 100 µM (inactive).

**Q.** What about the GI50 [37] of the same compound?
**A.** The GI50 was > 100 µM (inactive).

**Q.** And the GI50 [38]?
**A.** The GI50 was > 100 µM (inactive).

**Q.** And the GI50 [39]?
**A.** The GI50 was > 100 µM (inactive).

**Q.** What about the GI50 [40] of the same compound?
**A.** Its GI50 is > 100 µM (inactive).

**Q.** And the GI50 [41]?
**A.** Its GI50 is > 100 µM (inactive).

**Q.** What about the GI50 [42] of the same compound?
**A.** The GI50 was > 100 µM (inactive).

**Q.** What about the GI50 [43] of the same compound?
**A.** The GI50 was > 100 µM (inactive).

**Q.** And the GI50 [44]?
**A.** The GI50 was > 100 µM (inactive).

**Q.** What about the GI50 [45] of the same compound?
**A.** The GI50 was > 100 µM (inactive).

**Q.** And the GI50 [46]?
**A.** The GI50 was > 100 µM (inactive).

**Q.** And the GI50 [47]?
**A.** The GI50 was > 100 µM (inactive).

**Q.** And the GI50 [48]?
**A.** Its GI50 is > 100 µM (inactive).

**Q.** What about the GI50 [49] of the same compound?
**A.** Its GI50 is > 100 µM (inactive).

**Q.** What about the GI50 [50] of the same compound?
**A.** The GI50 was > 100 µM (inactive).

**Q.** And the GI50 [51]?
**A.** Its GI50 is > 100 µM (inactive).

**Q.** What about the GI50 [52] of the same compound?
**A.** Its GI50 is > 100 µM (inactive).

**Q.** What about the GI50 [53] of the same compound?
**A.** Its GI50 is > 100 µM (inactive).

**Q.** And the GI50 [54]?
**A.** The GI50 was > 100 µM (inactive).

**Q.** What about the GI50 [55] of the same compound?
**A.** Its GI50 is > 100 µM (inactive).

**Q.** What about the GI50 [56] of the same compound?
**A.** The GI50 was > 100 µM (inactive).
